In publication PMC9027599, “Secondary Metabolites in Basil, Bio-Insecticide, Inhibition Effect, and In Silico Molecular Docking against Proteolytic Enzymes of the Red Palm Weevil (Rhynchophorus ferrugineus)” (Plants, 2022):
Blank lines part the entries; values can stand above or below the compound they belong to.

Columns and labels:
[1] = tested on: proteases from the fourth larval instars of R. ferrugineus's midgut; assay: Specific protease inhibitors on midgut proteases (in vitro, Figure S2); format: biochemical, Rhynchophorus ferrugineus; details: purified proteases of fourth larval instar midgut
Procedure: The activity of cysteine proteinase was determined in the fourth midgut instar larval homogenate of R. ferrugineus using the substrate Z-Phe-Arg-MNA [1]. Ten larvae were carefully removed, dissected, and rinsed repeatedly with NaCl solution (0.9% (w/v). The midgut instar was homogenized in protease assay buffer (500 µL) [5 mM DTT, 50 mM HEPS (N-2-Hydroxyethyl piperazin-N’-2-ethanesulfonic acid), pH 8.0, and 0.1 percent Triton X-100]. The reaction mixture was centrifuged for 30 min at 5000 rpm (Sigma 3k30 cooling centrifuge). The supernatant was utilized to determine the overall activity of proteolytic enzymes and the protein content. The supernatant (10 µL) was incubated for 30 min at 37 °C, and the volume was adjusted to 60 µL using assay buffer (pH 8) before adding 100 µL of substrate (0.5 mM). Prior to adding the substrate, 10 µL enzyme samples were pre-incubated with iodoacetic acid for 10 min. After 60 min at 37 °C of mixture incubation, the reaction was halted with the addition of 1.5 mL mersalyl (5 mM), 0.02 mg/mL fast garnet reactive solution, and 2% Tween 20. The reaction was centrifuged (at 5000 rpm, 6 min), then the absorbance was determined (at 520 nm). The activity of cysteine proteinase was measured using an ELISA quick plate reader at the OD520/60 min/mg of midgut protein. As a blank, a test mixture devoid of enzyme was used. […] The fourth homogenates of midgut larval were produced as reported before in the experiment for determining enzyme activity. […]
To learn more about the proteases found in homogenate preparations of R. ferrugineus fourth midgut larval instars, inhibitors from many different types of mechanisms were used. […] The absorbance of the enzymes was determined using an ELISA plate quick reader at various wavelengths. The percentage activity of the control enzyme for each inhibitor was evaluated for each enzyme. Protease activity was assayed in vivo in the R. ferrugineus fourth midgut larval instars, which were treated with 1, 10, 50, 100, 500, 1000, and 5000 mg/L of extracts or compounds, measured as described above. […]

[2] = tested on: cysteine protease; assay: Cysteine protease activity of midgut from larvae treated 24 h (in vivo); set-up: species or system Rhynchophorus ferrugineus; details: midgut of fourth instar larvae treated for 24 h
Procedure: The activity of cysteine proteinase was determined in the fourth midgut instar larval homogenate of R. ferrugineus using the substrate Z-Phe-Arg-MNA [1]. […] The reaction was centrifuged (at 5000 rpm, 6 min), then the absorbance was determined (at 520 nm). The activity of cysteine proteinase was measured using an ELISA quick plate reader at the OD520/60 min/mg of midgut protein. […]
As a control, an assay combination devoid of inhibitors was utilized. The absorbance of the enzymes was determined using an ELISA plate quick reader at various wavelengths. The percentage activity of the control enzyme for each inhibitor was evaluated for each enzyme. Protease activity was assayed in vivo in the R. ferrugineus fourth midgut larval instars, which were treated with 1, 10, 50, 100, 500, 1000, and 5000 mg/L of extracts or compounds, measured as described above. […]

[3] = tested on: metalloprotease; assay: Metalloprotease activity of midgut from larvae treated 24 h (in vivo); set-up: species or system Rhynchophorus ferrugineus; details: midgut of fourth instar larvae treated for 24 h
Procedure: (§1) A substrate azocasein assessed the metalloproteinases activity in the fourth midgut instar larval homogenate. Ten larvae were carefully removed, dissected, and rinsed repeatedly with NaCl solution (0.9% (w/v). […] After homogenization, the homogenates were centrifuged at 5000 rpm (for 30 min) using a Sigma centrifuge 3k30, and the supernatant was utilized to determine enzyme activity and protein content. The supernatant per experiment (10 µL) was incubated for 20 min at 37 °C, and the volume was adjusted to 60 µL using assay buffer pH 8 before adding azocasein (200 µL, 2% (w/v)). In all instances, 10 µL enzyme samples were incubated for 10 min (except EDTA with 20 min), and EDTA was used as a blocker of metalloproteinase activity before being added to the specific substrate. The reaction was interrupted with 300 µL of trichloroacetic acid (TCA cold, 10% (v/v) and continued at 37 °C for 180 min. The reaction mixture was then centrifuged at 5000 rpm for 20 min (Sigma centrifuge 3k30), sodium hydroxide (10 µL of 10 N) was incorporated into the supernatant, then absorbance was determined using an ELISA plate reader at 450 nm. As a blank, an assay mixture devoid of the enzyme was devoted, the specific activity was determined using the OD450 mg^−1 protein min^−1 value, and a blank solution sample devoid of enzyme solution was determined. To learn more about the proteases found in homogenate preparations of R. ferrugineus fourth midgut larval instars, inhibitors from many different types of mechanisms were used. […] As a control, an assay combination devoid of inhibitors was utilized. The absorbance of the enzymes was determined using an ELISA plate quick reader at various wavelengths. The percentage activity of the control enzyme for each inhibitor was evaluated for each enzyme. […] Larvae were exposed for 24 h to leaf discs treated with extract and compounds.

[4] = target: metalloprotease; assay: Metalloproteinase activity, azocasein (in vitro); format: biochemical, Rhynchophorus ferrugineus; details: fourth instar larvae midgut homogenate
Procedure: as §1

[5] = tested on: total proteases; assay: Total proteolytic activity of fourth instar midgut homogenate, azocasein (in vitro); format: biochemical, Rhynchophorus ferrugineus; details: fourth instar larvae midgut homogenate
Procedure: (§2) The Lowry technique was used to determine the protein concentrations. Total proteolytic activity was determined in the fourth midgut instar larval (lab strain) homogenate of R. ferrugineus with azocasein in accordance with […] et al. […] [70]. […] Using a Sigma 3k30 cooling centrifuge, reserve homogenates prepared in a previous stage were spun at 5000 rpm for 30 min. Estimates of protein content and total proteolytic enzyme activity were made using the supernatants. The supernatant (10 μL) was incubated at 37 °C for 20 min, and the volume was adjusted to 60 μL using an assay buffer (pH 8), before adding azocasien (200 μL, 2% (w/v)). […] Following that, to activate the reaction, the substrate was introduced 20 min for Leupeptin, so the reaction was halted after 180 min at 37 °C with 300 μL of cool tri-chloroacetic acid (TCA) (10% (v/v). The mixture was centrifuged for 20 min at 5000 rpm (Sigma 3k30 cooling centrifuge). […] To learn more about the proteases found in homogenate preparations of R. ferrugineus fourth midgut larval instars, inhibitors from many different types of mechanisms were used. […] As a control, an assay combination devoid of inhibitors was utilized. The absorbance of the enzymes was determined using an ELISA plate quick reader at various wavelengths. The percentage activity of the control enzyme for each inhibitor was evaluated for each enzyme. […] Larvae were exposed for 24 h to leaf discs treated with extract and compounds.

[6] = target: trypsin-like serine proteinase; assay: Serine proteinase microplate assay, BApNA (in vitro); format: biochemical, Rhynchophorus ferrugineus; details: fourth instar larvae midgut homogenate
Procedure: The specific activities of serine proteinase were determined using a rapid quick microplate assay with substrates in reaction mixtures (150 μL) including a serine protease assay buffer, according to […] et al. and Olga et al. with modifications. The midguts were homogenized in the assay buffer (100 mM Tris-HCl, pH 8.1) and centrifuged for 30 min at 8000 rpm (Sigma 3K 30, rotors No. 12158). […] […] (100 mg/mL in DMF), BAρNA (100 mg/mL in DMSO), and […] (100 mg/mL in DMF) stock substrates were diluted in the assay buffer to 1 mg/mL, and substrate volume was 50 μL. […] The activity was quantified using an ELISA plate reader at a wavelength of 405 nm. As an empty well, an assay combination containing a denaturation enzyme was utilized instead of an active enzyme. […] To learn more about the proteases found in homogenate preparations of R. ferrugineus fourth midgut larval instars, inhibitors from many different types of mechanisms were used. […] As a control, an assay combination devoid of inhibitors was utilized. The absorbance of the enzymes was determined using an ELISA plate quick reader at various wavelengths. The percentage activity of the control enzyme for each inhibitor was evaluated for each enzyme. […] Larvae were exposed for 24 h to leaf discs treated with extract and compounds.

[7] = tested on: total proteases; assay: Total protease activity of midgut from larvae treated 24 h (in vivo); set-up: species or system Rhynchophorus ferrugineus; details: midgut of fourth instar larvae treated for 24 h
Procedure: as §2

[8] = tested on: trypsin-like serine proteinase; assay: Trypsin-like activity of midgut from larvae treated 24 h (in vivo); set-up: species or system Rhynchophorus ferrugineus; details: midgut of fourth instar larvae treated for 24 h
Procedure: The midguts were homogenized in the assay buffer (100 mM Tris-HCl, pH 8.1) and centrifuged for 30 min at 8000 rpm (Sigma 3K 30, rotors No. 12158). […] […] (100 mg/mL in DMF), BAρNA (100 mg/mL in DMSO), and […] (100 mg/mL in DMF) stock substrates were diluted in the assay buffer to 1 mg/mL, and substrate volume was 50 μL. […] The activity was quantified using an ELISA plate reader at a wavelength of 405 nm. As an empty well, an assay combination containing a denaturation enzyme was utilized instead of an active enzyme. […] To learn more about the proteases found in homogenate preparations of R. ferrugineus fourth midgut larval instars, inhibitors from many different types of mechanisms were used. […] As a control, an assay combination devoid of inhibitors was utilized. The absorbance of the enzymes was determined using an ELISA plate quick reader at various wavelengths. The percentage activity of the control enzyme for each inhibitor was evaluated for each enzyme. […] Larvae were exposed for 24 h to leaf discs treated with extract and compounds.

[9] = target: cysteine protease; assay: Cysteine proteinase activity, Z-Phe-Arg-MNA (in vitro); format: biochemical, Rhynchophorus ferrugineus; details: fourth instar larvae midgut homogenate
Procedure: The activity of cysteine proteinase was determined in the fourth midgut instar larval homogenate of R. ferrugineus using the substrate Z-Phe-Arg-MNA [1]. Ten larvae were carefully removed, dissected, and rinsed repeatedly with NaCl solution (0.9% (w/v). The midgut instar was homogenized in protease assay buffer (500 µL) [5 mM DTT, 50 mM HEPS (N-2-Hydroxyethyl piperazin-N’-2-ethanesulfonic acid), pH 8.0, and 0.1 percent Triton X-100]. The reaction mixture was centrifuged for 30 min at 5000 rpm (Sigma 3k30 cooling centrifuge). The supernatant was utilized to determine the overall activity of proteolytic enzymes and the protein content. The supernatant (10 µL) was incubated for 30 min at 37 °C, and the volume was adjusted to 60 µL using assay buffer (pH 8) before adding 100 µL of substrate (0.5 mM). Prior to adding the substrate, 10 µL enzyme samples were pre-incubated with iodoacetic acid for 10 min. After 60 min at 37 °C of mixture incubation, the reaction was halted with the addition of 1.5 mL mersalyl (5 mM), 0.02 mg/mL fast garnet reactive solution, and 2% Tween 20. The reaction was centrifuged (at 5000 rpm, 6 min), then the absorbance was determined (at 520 nm). The activity of cysteine proteinase was measured using an ELISA quick plate reader at the OD520/60 min/mg of midgut protein. As a blank, a test mixture devoid of enzyme was used. […] The fourth homogenates of midgut larval were produced as reported before in the experiment for determining enzyme activity. As previously disclosed, the inhibitory experiment was performed using a microplate assay. A series of inhibitor concentrations was created to determine the inhibitor’s maximal inhibitory effect. Leupeptin concentrations of 0.01, 0.05, 0.1, and 1.0 mM, PMSF concentrations of 0.1, 1.0, 10, and 50 mM, TLCK and TPCK concentrations of 0.01, 0.05, 0.1, 1, 50, and 100 mM, EDTA concentrations of 0.1, 1, 10, 50, and 100 mM, and iodoacetic acid concentrations of 0.01, 0.05, 0.1, and 1 mM.
As a control, an assay combination devoid of inhibitors was utilized. The absorbance of the enzymes was determined using an ELISA plate quick reader at various wavelengths. The percentage activity of the control enzyme for each inhibitor was evaluated for each enzyme. Protease activity was assayed in vivo in the R. ferrugineus fourth midgut larval instars, which were treated with 1, 10, 50, 100, 500, 1000, and 5000 mg/L of extracts or compounds, measured as described above. Larvae were exposed for 24 h to leaf discs treated with extract and compounds.

SMILES: Cc1ccc(S(=O)(=O)N[C@@H](CCCCN)C(=O)CCl)cc1 [TLCK]
- effect of specific inhibitor on midgut proteases [1]: dramatically suppressed

SMILES: Cc1ccc(S(=O)(=O)N[C@@H](Cc2ccccc2)C(=O)CCl)cc1 [TPCK]
- effect of specific inhibitor on midgut proteases [1]: dramatically suppressed

- IC50 against metalloprotease (in vitro) [4]: 119.4 µg/mL
- IC50 against trypsin-like serine proteinase (in vitro) [6]: 57.4 µg/mL
- IC50 against cysteine protease (in vitro) [9]: 58.2 µg/mL
SMILES: C[C@H]1[C@H](C)CC[C@]2(C(=O)O)CC[C@]3(C)C(=CC[C@@H]4[C@@]5(C)CC[C@H](O)C(C)(C)[C@@H]5CC[C@]43C)[C@H]12 [Ursolic acid]
- IC50 against cysteine protease (in vivo) [2]: 685.2 µg/mL
- IC50 against metalloprotease (in vivo) [3]: 548.3 µg/mL
- IC50 against total proteases (in vitro) [5]: 67.2 µg/mL
- IC50 against total proteases (in vivo) [7]: 279.5 µg/mL
- IC50 against trypsin-like serine proteinase (in vivo) [8]: 235.1 µg/mL

SMILES: O=C(O)CI [iodoacetic acid]
- effect of specific inhibitor on midgut proteases [1]: dramatically suppressed
